Holding throughout (assay type): in vivo
One assay deals with house flies. Description: Campbell's turn table oil spray test on house fly adults (Experimental Example 1). The following applies: Musca domestica, 24 h, oil spray 5 ml, 10 min exposure, mortality after 1 day, read-out: LC50 (50 percent lethal concentration). As to the method: The present compounds (1), (4), (8), (10), (14), (15), (20), (22), (32), (36), (38), (41), (44), (48), (50), (51), (52), (53), (61), (66), (68), (72), (73), (78), (80), (81), (90), (93) and (96), and chrysanthemic acid esters and pyrethric acid esters corresponding thereto were individually formulated by use of deodorized kerosene into oil sprays of various test concentrations.
Using the Campbell's turn table [disclosed in "Soap & Sanitary Chemicals," Vol. 14, No. 6, page 119 (1938)], 5 ml. of each of the oil sprays was sprayed. When 20 seconds had elapsed after the spraying, the shutter was opened, and adults of house flies (a group of about 100 flies) were exposed to the settling mist for 10 minutes and then transferred to an observation cage.
The above operation was repeated several times to measure the LC50 (50 percent lethal concentration) of each compound.

In assay [1] the test system is Northern house mosquitoes. Description: knock-down test of oil sprays on Northern house mosquito adults in (70 cm)^3 glass chamber (Experimental Example 2). As to the method:
The present compounds (1), (6), (20), (22), (23), (25), (27), (29), (30), (31), (39), (42), (43), (45), (49), (53), (56), (62), (64), (78), (81), (83), (85), (87), (88) and (89), and chrysanthemic acid esters and pyrethric acid esters corresponding thereto were individually formulated by use of deodorized kerosene into oil sprays of various test concentrations.
About 20 adults of Northern house mosquitoes were liberated in a (70 cm)^3 glass chamber, and 0.7 ml. of each of the oil sprays was sprayed into the chamber under a pressure of 1.5 kg/cm^2 by use of a glass atomizer. Subsequently, the number of knocked-down mosquitoes was counted to calculate the KT50 (50 percent knock down time) of each compound.

The subject of a further assay is rice stem borer larvae. Description: micro dropping (topical) test on hibernating rice stem borer larvae (Experimental Example 3). The note with it: topical in acetone, head and tail of larvae, 3 days. From the text:
The present compounds (1), (4), (8), (10), (14), (15), (22), (32), (36), (38), (41), (44), (48), (50), (51), (52), (53), (61), (66), (68), (72), (73), (80), (81), (90) and (93) and chrysanthemic acid esters corresponding thereto were individually dissolved in acetone to prepare insecticides of various concentrations. Using a micro dropping means, each of the insecticides was dropped to the head and tail of hibernating rice stem borer larvae.

Setting [2] is: concentration of oil spray 0.1%.

Results on 27 compounds are retold here after patent US3954814A, “Alkadienylcyclopropanecarboxylates” (Sumitomo Chemical Company, Limited, priority 1971, dated 1976).

≈ marks a conversion by molar mass, not a printed value.

For the compound `C#CCc1ccc(C(C#C)OC(=O)C2C(C=C(C)C=C)C2(C)C)o1` (stereo not drawn) [Present compound (20), 5-Propargylα-ethynylfurfuryl 2',2'-dimethyl-3'-(2"-methyl-1",3"-butadienyl)-cyclopropanecarboxylate], the LC50 in the assay with house flies was found to be 90 µg/mL (≈ 279 µM). The “KT50 (50 percent knock down time)” value in assay [1] (setting [2]) was determined as 102 s.

Regarding `C=CC(C)=CC1C(C(=O)OCC=C(Cl)Cc2ccccc2)C1(C)C` (stereo not drawn) [Present compound (32), 3-Chloro-4-phenyl-2-butene-1-yl 2',2'-dimethyl-3'-(2"-methyl-1",3"-butadienyl)-cyclopropanecarboxylate], the “LD50 (50 percent lethal dose)” value in the assay on rice stem borer larvae is recorded as 0.52 γ/larva. In the assay on house flies, the LC50 was found to be 190 µg/mL (≈ 551 µM).

On to `CC(C)=CC1C(C(=O)OCc2cccc(Cc3ccccc3)c2)C1(C)C` (stereo not drawn) [3-Benzylbenzyl chrysanthemate, reference compound], for which the “LD50 (50 percent lethal dose)” value in the assay with rice stem borer larvae was 1.20 γ/larva. In the assay with house flies, the LC50 came out at 270 µg/mL (≈ 775 µM).

With `C=CCc1cc(C)c(COC(=O)C2C(C=C(C)C=C)C2(C)C)c(C)c1` (stereo not drawn) [Present compound (36), 2,6-Dimethyl-4-allylbenzyl 2',2'-dimethyl-3'-(2"-methyl-1",3"-butadienyl)-cyclopropanecarboxylate], the “LD50 (50 percent lethal dose)” value in the assay on rice stem borer larvae is 0.28 γ/larva. Also, the LC50 with house flies worked out at 390 µg/mL (≈ 1150 µM).

`C=CC=CC1C(C(=O)OCc2cc3c(o2)CCCC3)C1(C)C` (stereo not drawn) [Present compound (68), 4,5-Tetramethylenefurfuryl 2',2'-dimethyl-3'-(1",3"-butadienyl)-cyclopropanecarboxylate]: the “LD50 (50 percent lethal dose)” value in the assay on rice stem borer larvae was 0.26 γ/larva. In the assay with house flies, the LC50 was 110 µg/mL (≈ 366 µM).

Turning to `C=CC=CC1C(C(=O)OCC=C(Cl)Cc2ccccc2)C1(C)C` (stereo not drawn) [Present compound (90), 3-Chloro-4-phenyl-2-butene-1-yl 2',2'-dimethyl-3'-(1",3"-butadienyl)-cyclopropanecarboxylate], the “LD50 (50 percent lethal dose)” value with rice stem borer larvae was 0.43 γ/larva. In addition, the LC50 in the assay with house flies is 170 µg/mL (≈ 514 µM).

Consider `C=CC(C)=CC1C(C(=O)OCc2cccc(Cc3ccccc3)c2)C1(C)C` (stereo not drawn) [Present compound (4), 3-Benzylbenzyl 2',2'-dimethyl-3'-(2"-methyl-1",3"-butadienyl)-cyclopropanecarboxylate], for which the “LD50 (50 percent lethal dose)” value in the assay with rice stem borer larvae was 0.71 γ/larva. Besides, the LC50 in the assay on house flies came to 110 µg/mL (≈ 305 µM).

As to `CC=CC=CC1C(C(=O)OCc2coc(Cc3ccccc3)c2)C1(C)C` (stereo not drawn) [Present compound (51), 5-Benzyl-3-furylmethyl 2',2'-dimethyl-3'-(1",3"-pentadienyl)-cyclopropanecarboxylate], the “LD50 (50 percent lethal dose)” value in the assay on rice stem borer larvae is 0.065 γ/larva. The LC50 with house flies came out at 56 µg/mL (≈ 160 µM).

On to `C=CC=CC1C(C(=O)OC(C#N)c2cccc(Oc3ccccc3)c2)C1(C)C` (stereo not drawn) [Present compound (80), 3-Phenoxy-α-cyanobenzyl 2',2'-dimethyl-3'-(1",3"-butadienyl)-cyclopropanecarboxylate], for which the “LD50 (50 percent lethal dose)” value in the assay on rice stem borer larvae is on record as 0.005 γ/larva. Further, the LC50 with house flies was 35 µg/mL (≈ 93.7 µM).

With `CC(C)=CC1C(C(=O)OCc2ccc(Oc3ccccc3)o2)C1(C)C` (stereo not drawn) [5-Phenoxyfurfuryl chrysanthemate, reference compound], in the assay with rice stem borer larvae, the “LD50 (50 percent lethal dose)” value is listed as 0.12 γ/larva. In the assay with house flies, the LC50 was 85 µg/mL (≈ 250 µM).

As to `COC(=O)C(C)=CC1C(C(=O)OCc2coc(Cc3ccccc3)c2)C1(C)C` (stereo not drawn) [5-Benzyl-3-furylmethyl pyrethrate, reference compound], the LC50 with house flies worked out at 890 µg/mL (≈ 2330 µM). Further, the “KT50 (50 percent knock down time)” value in assay [1] (concentration of oil spray 0.2%) turned out to be 182 s.

On to `CC(C)=CC1C(C(=O)OCC=C(Cl)Cc2ccccc2)C1(C)C` (stereo not drawn) [3-Chloro-4-phenyl-2-butene-1-yl chrysanthemate, reference compound], for which, in the assay on rice stem borer larvae, the “LD50 (50 percent lethal dose)” value was 0.68 γ/larva. Also, the LC50 in the assay with house flies worked out at 360 µg/mL (≈ 1080 µM).

`C#CCc1ccc(COC(=O)C2C(C=C(C)C=C)C2(C)C)cc1` (stereo not drawn) [Present compound (8), 4-Propargylbenzyl 2',2'-dimethyl-3'-(2"-methyl-1",3"-butadienyl)-cyclopropanecarboxylate]: in the assay with rice stem borer larvae, the “LD50 (50 percent lethal dose)” value was 0.37 γ/larva. The LC50 with house flies came out at 500 µg/mL (≈ 1620 µM).

With `CC=CC(C)=CC1C(C(=O)OCc2coc(Cc3ccccc3)c2)C1(C)C` (stereo not drawn) [Present compound (38), 5-Benzyl-3-furylmethyl 2',2'-dimethyl-3'-(2"-methyl-1",3"-pentadienyl)-cyclopropanecarboxylate], the “LD50 (50 percent lethal dose)” value in the assay on rice stem borer larvae was 0.102 γ/larva. The LC50 with house flies is 66 µg/mL (≈ 181 µM).

Take `C=CC(C)=CC1C(C(=O)OCc2ccc(Oc3ccccc3)o2)C1(C)C` (stereo not drawn) [Present compound (14), 5-Phenoxyfurfuryl 2',2'-dimethyl-3'-(2"-methyl-1",3"-butadienyl)-cyclopropanecarboxylate]: in the assay with rice stem borer larvae, the “LD50 (50 percent lethal dose)” value is on record as 0.040 γ/larva. In the assay with house flies, the LC50 was determined as 47 µg/mL (≈ 133 µM).

Regarding `C=CC=CC1C(C(=O)OCc2ccc(Oc3ccccc3)o2)C1(C)C` (stereo not drawn) [Present compound (72), 5-Phenoxyfurfuryl 2',2'-dimethyl-3'-(1",3"-butadienyl)-cyclopropanecarboxylate], the “LD50 (50 percent lethal dose)” value in the assay on rice stem borer larvae was 0.034 γ/larva. The LC50 in the assay on house flies stood at 41 µg/mL (≈ 121 µM).

Regarding `C=CC=CC1C(C(=O)OCc2coc(Cc3ccccc3)c2)C1(C)C` (stereo not drawn) [Present compound (50), 5-Benzyl-3-furylmethyl 2',2'-dimethyl-3'-(1",3"-butadienyl)-cyclopropanecarboxylate], in the assay on rice stem borer larvae, the “LD50 (50 percent lethal dose)” value is listed as 0.057 γ/larva. In the assay on house flies, the LC50 came out at 44 µg/mL (≈ 131 µM).

Turning to `C=CCc1cc(C)c(COC(=O)C2C(C=C(C)C)C2(C)C)c(C)c1` (stereo not drawn) [2,6-Dimethyl-4-allylbenzyl chrysanthemate, reference compound], the “LD50 (50 percent lethal dose)” value with rice stem borer larvae is 0.35 γ/larva. The LC50 in the assay with house flies came to 650 µg/mL (≈ 1990 µM).

As to `C#CCc1ccc(COC(=O)C2C(C=C(C)C)C2(C)C)cc1` (stereo not drawn) [4-Propargylbenzyl chrysanthemate, reference compound], the “LD50 (50 percent lethal dose)” value with rice stem borer larvae was 0.99 γ/larva. In the assay on house flies, the LC50 was found to be 850 µg/mL (≈ 2870 µM).

Regarding `CC(C)=CC(C)=CC1C(C(=O)OCc2coc(Cc3ccccc3)c2)C1(C)C` (stereo not drawn) [Present compound (44), 5-Benzyl-3-furylmethyl 2',2'-dimethyl-3'-(2",4"-dimethyl-1",3"-pentadienyl)-cyclopropanecarboxylate], the “LD50 (50 percent lethal dose)” value with rice stem borer larvae was 0.145 γ/larva. The LC50 in the assay with house flies worked out at 63 µg/mL (≈ 166 µM).

Regarding `C=CC=CC1C(C(=O)OCc2cccc(Cc3ccccc3)c2)C1(C)C` (stereo not drawn) [Present compound (61), 3-Benzylbenzyl 2',2'-dimethyl-3"-(1",3"-butadienyl)-cyclopropanecarboxylate], the “LD50 (50 percent lethal dose)” value in the assay with rice stem borer larvae is on record as 0.50 γ/larva. In the assay on house flies, the LC50 was 90 µg/mL (≈ 260 µM).

Regarding `C=CC(C)=CC1C(C(=O)OCc2cc3c(o2)CCCC3)C1(C)C` (stereo not drawn) [Present compound (10), 4,5-Tetramethylenefurfuryl 2',2'-dimethyl-3'-(2"-methyl-1",3"-butadienyl)-cyclopropanecarboxylate], in the assay on rice stem borer larvae, the “LD50 (50 percent lethal dose)” value is reported as 0.32 γ/larva. The LC50 with house flies was determined as 120 µg/mL (≈ 382 µM).

For the compound `C=CC=CC1C(C(=O)OCc2c(C)cc(CC=C)cc2C)C1(C)C` (stereo not drawn) [Present compound (93), 2,6-Dimethyl-4-allylbenzyl 2',2'-dimethyl-3'-(1",3"-butadienyl)-cyclopropanecarboxylate], the “LD50 (50 percent lethal dose)” value in the assay on rice stem borer larvae is recorded as 0.21 γ/larva. Moreover, in the assay with house flies, the LC50 stood at 230 µg/mL (≈ 709 µM).

On to `CC(C)=CC1C(C(=O)OCc2cc3c(o2)CCCC3)C1(C)C` (stereo not drawn) [4,5-Tetramethylenefurfuryl chrysanthemate, reference compound], for which the “LD50 (50 percent lethal dose)” value in the assay on rice stem borer larvae is listed as 0.75 γ/larva. Moreover, the LC50 in the assay with house flies amounted to 160 µg/mL (≈ 529 µM).

In the case of `CC(C)=CC1C(C(=O)OCc2cccc(Oc3ccccc3)c2)C1(C)C` (stereo not drawn) [3-Phenoxybenzyl chrysanthemate, reference compound], the “LD50 (50 percent lethal dose)” value in the assay with rice stem borer larvae is 0.72 γ/larva. Also, the LC50 with house flies turned out to be 170 µg/mL (≈ 485 µM).

For the compound `C#CCc1ccc(C(C#C)OC(=O)C2C(C=CC=C)C2(C)C)o1` (stereo not drawn) [Present compound (78), 5-Propargyl-α-ethynylfurfuryl 2',2'-dimethyl-3'-(1",3"-butadienyl)-cyclopropanecarboxylate], the LC50 in the assay with house flies stood at 82 µg/mL (≈ 266 µM). The “KT50 (50 percent knock down time)” value in assay [1] (setting [2]) was 93 s.

As for `C#CCc1ccc(C(C#C)OC(=O)C2C(C=C(C)C)C2(C)C)o1` (stereo not drawn) [5-Propargyl-α-ethynylfurfuryl chrysanthemate, reference compound], the LC50 with house flies was 260 µg/mL (≈ 838 µM). For the same compound, in assay [1] (setting [2]), the “KT50 (50 percent knock down time)” value worked out at 120 s.
